# Test results: patent publication US11247981B2, “Metalloenzyme inhibitor compounds” (Mycovia Pharmaceuticals, Inc., priority 2012, dated 2022)
# Test system: C. albicans
# Experiment: Minimum Inhibitory Concentration (MIC), CLSI M27-A2
# Format: cell-based
# Settings: Candida albicans, rating scale in μg/mL
# Experimental: A. Minimum Inhibitory Concentration (MIC) Compounds were assessed for their ability to inhibit the growth of common strains of fungus, C. albicans using a standardized procedure (CLSI M27-A2). Stock solutions of the test compounds and standards were prepared in DMSO at 1,600 μg/mL (C. albicans). Eleven, serial, one-half dilutions of compounds were prepared in 96-well plates in RPMI+MOPS. The assay concentration ranges were 8-0.001 μg/mL (C. albicans). Cell suspensions of C. albicans were prepared and added to each well at concentrations of approximately 3.7×10^3 colony-forming-units per milliliter (cfu/mL). All testing was in duplicate. The inoculated plates were incubated for approximately 48 h at 35±1° C. At the completion of incubation the wells of each plate were evaluated visually for the presence of fungal growth. […] For QC purposes C. krusei isolate ATCC 6258 (4.0×10^3 cfu/mL) was included in the VOR assay.
row,MIC,Compound
1,1.5 to 4 µg/mL,"CC(F)(c1ccc(-c2ccc(F)cc2)cn1)C(O)(Cn1cnnn1)c1ccc(F)cc1F (centres unmarked) [Example 50, 2-(2,4-Difluorophenyl)-3-fluoro-3-(5-(4-fluorophenyl)pyridin-2-yl)-1-(1H-tetrazol-1-yl)butan-2-ol]"

# Same assay, conditions: rating scale in μg/mL
row,Candida MIC Rating,Compound
1,A (≤0.5),"OC(Cn1cnnn1)(c1ccc(F)cc1F)C(F)(F)c1ccc(-c2ccc(OCC(F)(F)F)cc2)cn1 (centres unmarked) [Example 11, 2-(2,4-Difluorophenyl)-1,1-difluoro-3-(1H-tetrazol-1-yl)-1-(5-(4-(2,2,2-trifluoroethoxy)phenyl)pyridin-2-yl)propan-2-ol]"
2,C (>1.5 − 4),"OC(Cn1cnnn1)(c1ccc(F)cc1F)C(F)(F)c1ccc(-c2ccc(OCC(F)(F)F)cc2)cn1 (centres unmarked) [Example 39, 2-(2,4-Difluorophenyl)-1,1-difluoro-3-(1H-tetrazol-1-yl)-1-(5-(4-(2,2,2-trifluoroethoxy)phenyl)pyridin-2-yl)propan-2-ol]"
3,A (≤0.5),"CC(F)(c1ccc(-c2ccc(OC(F)(F)F)cc2)cn1)C(O)(Cn1cnnn1)c1ccc(F)cc1F (centres unmarked) [Example 47, 2-(2,4-Difluorophenyl)-3-fluoro-1-(1H-tetrazol-1-yl)-3-(5-(4-(trifluoromethoxy)phenyl)-pyridin-2-yl)butan-2-ol]"
4,A (≤0.5),"CC(F)(c1ccc(-c2ccc(F)cc2)cn1)C(O)(Cn1cnnn1)c1ccc(F)cc1F (centres unmarked) [Example 51, 2-(2,4-Difluorophenyl)-3-fluoro-3-(5-(4-fluorophenyl)pyridin-2-yl)-1-(1H-tetrazol-1-yl)butan-2-ol]"
5,C (>1.5 − 4),CC(F)(c1ccc(-c2ccc(C(F)(F)F)cc2)cn1)C(O)(Cn1cnnn1)c1ccc(F)cc1F (centres unmarked) [Example 52]
6,B (>0.5 − 1.5),CC(F)(c1ccc(-c2ccc(C(F)(F)F)cc2)cn1)C(O)(Cn1cnnn1)c1ccc(F)cc1F (centres unmarked) [Example 53]
7,C (>1.5 − 4),"CC(F)(c1ccc(-c2ccc(Cl)cc2)cn1)C(O)(Cn1cnnn1)c1ccc(F)cc1F (centres unmarked) [Example 54, 3-(5-(4-Chlorophenyl)pyridin-2-yl)-2-(2,4-difluorophenyl)-3-fluoro-1-(1H-tetrazol-1-yl)butan-2-ol]"
8,A (≤0.5),"CC(F)(c1ccc(-c2ccc(Cl)cc2)cn1)C(O)(Cn1cnnn1)c1ccc(F)cc1F (centres unmarked) [Example 55, 3-(5-(4-Chlorophenyl)pyridin-2-yl)-2-(2,4-difluorophenyl)-3-fluoro-1-(1H-tetrazol-1-yl)butan-2-ol]"
9,C (>1.5 − 4),"CC(F)(c1ccc(-c2ccc(OCC(F)(F)F)cc2)cn1)C(O)(Cn1cnnn1)c1ccc(F)cc1F (centres unmarked) [Example 56, 2-(2,4-Difluorophenyl)-3-fluoro-1-(1H-tetrazol-1-yl)-3-(5-(4-(2,2,2-trifluoroethoxy)phenyl)pyridin-2-yl)butan-2-ol]"
10,A (≤0.5),"CC(F)(c1ccc(-c2ccc(OCC(F)(F)F)cc2)cn1)C(O)(Cn1cnnn1)c1ccc(F)cc1F (centres unmarked) [Example 57, 2-(2,4-Difluorophenyl)-3-fluoro-1-(1H-tetrazol-1-yl)-3-(5-(4-(2,2,2-trifluoroethoxy)phenyl)pyridin-2-yl)butan-2-ol]"
